Test results as given in PMC5685716, “Oral 4-(N)-stearoyl gemcitabine nanoparticles inhibit tumor growth in mouse models” (Oncotarget, 2017).
In brackets after ≈: the same amount, converted by molar mass. Several values for one entry are separate records, joined by “and”; a condition that tells them apart may be missing. Identical values can stand only once. Counter-ions that a name gives are not always drawn. Like-named read-outs stand apart in the source and are kept apart here.

Legend:
[1] = test system: TC-1 tumors; set-up: method as in PMID 21371545, PMID 22471294; details: GemC18 dissolved in a Tween 20 solution; cited from earlier work
[2] = set-up: method as in PMID 19860433, PMID 26806350; details: cited from earlier work
[3] = test system: B16F10 tumors; set-up: method as in PMID 21371545, PMID 22471294; details: GemC18 dissolved in a Tween 20 solution; cited from earlier work
[4] = test system: HT-29 tumor cells; set-up: method as in PMID 17352232; details: peritumoral injection, GemC18 in a Tween 80 solution; cited from earlier work
[5] = test system: LLC tumors; experiment: Antitumor activity in mice with LLC lung tumors; format: in vivo, C57BL/6J mice; details: p.o. once in every two days, GemC18 250 μg/mouse, GemHCl 141.5 μg/mouse (molar equivalent)
Description: LLC tumors were established in female C57BL/6J mice (6-8 week) from the Beijing Vital River Laboratory Animal Technology Co., Ltd. (Beijing, China). Mice were s.c. injected with LLC cells (5 × 10^5) in their back on day 0. On day 11, mice were randomized into groups (n = 8) and were treated by oral gavage with GemC18-SLNs, GemC18-free SLNs, GemC18 alone in a Tween 20 solution, GemHCl (molar equivalent of GemC18), all in a mannitol solution (5%, w/v). Control mice were orally gavaged with a mannitol solution (5%). Mice were treated once in every two days for 3 weeks. The dose of GemC18 was 250 μg/mouse, 141.5 μg/mouse for GemHCl (i.e. molar equivalent to 250 μg of GemC18). GemC18 was dissolved into 1% (v/v) Tween 20 in a 5% (w/v) mannitol solution to a proper concentration. Mouse health was monitored daily, and weight recorded. Tumor size was measured every other day. […] Microscopic images taken at 200 x magnification were analyzed using an Image-Pro Plus software (Media Cybernetics, Inc., Shanghai, China) to determine the percent of cells that are Ki67 positive, the microvessel density (MVD) in tumor tissues, and the optical density of the anti-caspase 3 staining.

[6] = test system: LLC cells; set-up: method as in earlier work; details: 3 × 10^3 cells, 48 h incubation; cited from earlier work
[7] = test system: TC-1 tumor cells; set-up: method as in PMID 23570983; details: 3 × 10^3 cells, 48 h of incubation; cited from earlier work
[8] = set-up: method as in PMID 19860433; details: mouse model, molar equivalent dose, cited from earlier work
[9] = set-up: method as in PMID 19860433, PMID 17090088; details: oral, animal (rodent) models; cited from earlier work
[10] = test system: leukemia; details: oral, rat leukemia model; cited from earlier work
[11] = set-up: method as in PMID 18473859, PMID 18474674; details: in water; cited from earlier work
[12] = set-up: method as in PMID 18519780; details: human subjects, patients with advanced or metastatic cancer, estimated; cited from earlier work
[13] = test system: TC-1 tumors; experiment: Antitumor activity in mice with pre-established TC-1 tumors; format: in vivo, C57BL/6 mice; details: p.o. once daily, GemC18 150 μg/mouse, gemcitabine HCl 85 μg/mouse (molar equivalent)
Source text: When TC-1 tumor cells were used, female C57BL/6 mice (18-20 g, 6-8 weeks, n = 5) were subcutaneously (s.c) injected with TC-1 cells (5 × 10^5 cells/mouse) in the right flank on day 0. Mouse hair was carefully trimmed at the injection site one day prior to the injection. Treatment with GemC18-SLNs, GemC18-in-vegetable oil (GemC18-in-oil), GemC18-free SLNs, all in a mannitol solution (5%, w/v), was started on day 11, and mice were orally gavaged daily until the endpoint (i.e. death, tumor size reaching 15 mm, tumor ulceration, body weight loss of more than 20%, or other signs of severe distress and discomfort). As controls, mice were orally gavaged with a mannitol solution (5%) or i.v. injected with the GemC18-SLNs, twice a week until the endpoint. The dose of GemC18 was 250 μg per mouse per dose for the oral route, 500 μg per mouse per dose for i.v. route. Tumor size was measured 2-3 times a week, and tumor volume was calculated as: volume (mm^3) = (length x width^2)/2. Mouse survival time was also recorded. In another study, TC-1 tumor-bearing female C57BL/6 mice were orally gavaged with GemC18-SLNs, GemC18-in-oil, vegetable oil alone (oil), or gemcitabine HCl (GemHCl, as a control), once daily. The dose of GemC18 was 150 μg per mouse per dose, and dose of GemHCl was 85 μg per mouse per dose (i.e. molar equivalent to the dose of GemC18).

SMILES: CCCCCCCCCCCCCCCCCC(=O)Nc1ccn([C@@H]2OC(CO)C(O)C2(F)F)c(=O)n1 (stereo partly shown) [GemC18, 4-(N)-stearoyl gemcitabine]
- antitumor activity [1]: did not show any significant antitumor activity
- solubility in water [2]: 1.38 ± 1.60 µg/mL (≈ 2.61 µM)
- antitumor activity [3]: did not show any significant antitumor activity
- tumor growth [4]: did not significantly affect the tumor growth
- LLC tumor growth [5]: also inhibited LLC tumor growth, but they were significantly less effective than oral GemC18-SLNs
- IC50 [6]: 130 ± 31.1 nM
- IC50 [7]: 18.5 ± 1.7 nM

SMILES: CCCC(CCC)C(=O)Nc1ccn([C@@H]2O[C@H](CO)[C@@H](O)C2(F)F)c(=O)n1 [LY2334737]
- systemic exposure (AUC) vs oral gemcitabine ([8]; listed as LY2334734): higher systemic exposure of gemcitabine than oral free gemcitabine
- systemic exposure (AUC) vs oral gemcitabine [8]: significantly higher
- solubility in water [2]: > 2000 µg/mL
- antitumor activity vs molar equivalent dose of gemcitabine [9]: stronger antitumor activity

SMILES: CC(C)=CCC/C(C)=C/CC/C(C)=C/CC/C=C(\C)CC/C=C(\C)CCC(=O)Nc1ccn([C@@H]2O[C@H](CO)[C@@H](O)C2(F)F)c(=O)n1 [SQdFdC]
- antitumor activity [10]: potent antitumor activity
- antitumor activity vs molar equivalent dose of gemcitabine [9]: stronger antitumor activity
- size of self-assembled nanoparticles [11]: 100-300 nm

SMILES: Nc1ccn([C@@H]2O[C@H](CO)[C@@H](O)C2(F)F)c(=O)n1 [gemcitabine, 2′,2′-difluorodeoxycytidine]
- oral bioavailability [12]: 10% and ~ 10%
- IC50 [7]: 10.6 ± 1.1 nM

SMILES: Nc1ccn([C@@H]2O[C@H](CO)[C@@H](O)C2(F)F)c(=O)n1 [gemcitabine HCl]
- LLC tumor growth [5]: also inhibited LLC tumor growth, but they were significantly less effective than oral GemC18-SLNs
- IC50 [6]: 23.4 ± 6.7 nM
- TC-1 tumor growth [13]: significantly less effective than the GemC18-SLNs
